Data as given in the supplement of paper PMC11061612.

Columns and labels:
[1] = compound: CC(=O)c1c(C)c2cnc(Nc3ccc(N4CCNCC4)cn3)nc2n(C2CCCC2)c1=O [Palbociclib]; settings: max 10 µM
Outline: (§1)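 In 1536-well plates, cancer cell lines in 7.5 μl DMEM/F12 or RPMI with 10% FBS spent 24 hours at 37°C and 5% CO2 and were then dosed for 72 hours with final DMSO typically 0.2%. Viability was read by CellTiter-Glo 2.0 luminescence and scaled between blank-well and DMSO-well means. The single-agent IC50 was fitted from dose responses using a logistic curve in a non-linear mixed effects model, and that logistic curve had two parameters.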

[2] = compound: CC(C)n1c(=O)n(C)c2cnc3cc(F)c(-c4ccc(OCCCN5CCCCC5)nc4)cc3c21 [AZD1390]; settings: max 0.3 µM
Outline: as §1

[3] = compound: C1CC(C1)(C(=O)[O-])C(=O)[O-].N.N.[Pt+2] [Carboplatin]; settings: max 10 µM
Outline: as §1

[4] = compound: C[C@@H](Nc1cc(F)cc(F)c1)c1cc(C(=O)N(C)C)cc2c(=O)cc(N3CCOCC3)oc12 [AZD8186]; settings: max 10 µM
Outline: as §1

[5] = compound: Cc1cc2ncnn2cc1Nc1ncc2c(n1)n(C1CCOCC1)c(=O)n2C [AZD7648]; settings: max 10 µM
Outline: as §1

[6] = compound: COc1cc(Nc2ncc3c(n2)-c2ccc(Cl)cc2C(c2c(F)cccc2OC)=NC3)ccc1C(=O)O [Alisertib]; settings: max 10 µM
Outline: as §1

[7] = compound: CC1(C)CCC(CN2CCN(c3ccc(C(=O)NS(=O)(=O)c4ccc(NCC5CCOCC5)c([N+](=O)[O-])c4)c(Oc4cnc5[nH]ccc5c4)c3)CC2)=C(c2ccc(Cl)cc2)C1 [Venetoclax]; settings: max 1 µM
Outline: as §1

[8] = compound: CC1=C(C(=CC=C1)Cl)NC(=O)C2=CN=C(S2)NC3=CC(=NC(=N3)C)N4CCN(CC4)CCO [Dasatinib]; settings: max 2 µM
Outline: as §1

[9] = compound: C=CCn1c(=O)c2cnc(Nc3ccc(N4CCN(C)CC4)cc3)nc2n1-c1cccc(C(C)(C)O)n1 [AZD1775]; settings: max 3 µM
Outline: as §1

[10] = compound: C[C@@H](Oc1cc(-c2cnn(C3CCNCC3)c2)cnc1N)c1c(Cl)ccc(F)c1Cl [Crizotinib]; settings: max 10 µM
Outline: as §1

[11] = compound: O=c1[nH]cc(F)c(=O)[nH]1 [5-Fluorouracil]; settings: max 20 µM
Outline: as §1

[12] = compound: CC(=O)Nc1cccc(-n2c(=O)n(C3CC3)c(=O)c3c(Nc4ccc(I)cc4F)n(C)c(=O)c(C)c32)c1 [Trametinib]; settings: max 1 µM
Outline: as §1

[13] = compound: CN(C)CCCOc1ccc(-c2ccc3ncc4c(c3c2)n(C2CCOCC2)c(=O)n4C)cn1 [AZD0156]; settings: max 3 µM
Outline: as §1

[14] = compound: CCc1c2c(nc3ccc(O)cc13)-c1cc3c(c(=O)n1C2)COC(=O)[C@]3(O)CC [SN-38]; settings: max 0.3 µM
Outline: as §1

[15] = compound: NC1(c2ccc(-c3nc4ccn5c(=O)[nH]nc5c4cc3-c3ccccc3)cc2)CCC1 [MK-2206]; settings: max 10 µM
Outline: as §1

[16] = compound: CCN(CCO)CCCOc1ccc2c(Nc3cc(CC(=O)Nc4cccc(F)c4)[nH]n3)ncnc2c1 [AZD2811]; settings: max 1 µM
Outline: as §1

[17] = compound: C[C@@H](c1ccc2nccn2c1)n1nnc2ncc(-c3cnn(C)c3)nc21 [Savolitinib]; settings: max 1 µM
Outline: as §1

[18] = compound: Cc1c2c(nn1C)CSCc1cc(n(C)n1)CSc1cc(c3ccccc3c1)OCCCc1c(C(=O)O)n(C)c3c-2c(Cl)ccc13 [AZD5991]; settings: max 1 µM
Outline: as §1

[19] = compound: O=C(Nc1ccc2[nH]nc(-c3ccncc3)c2c1)[C@@H]1CCN(CC(=O)N2CCN(c3ccc(-c4ncccn4)cc3)CC2)C1; settings: max 5 µM
Outline: as §1

[20] = compound: COc1cc2ncnc(Nc3ccc(F)c(Cl)c3)c2cc1OCCCN1CCOCC1 [Gefitinib]; settings: max 10 µM
Outline: as §1

[21] = compound: COc1cccc(OCCCN)c1-c1cc(Nc2cnc(C#N)cn2)n[nH]1 [Prexasertib]; settings: max 1 µM
Outline: as §1

[22] = compound: COc1cc([C@@H]2c3cc4c(cc3[C@@H](O[C@@H]3O[C@@H]5CO[C@@H](C)O[C@H]5[C@H](O)[C@H]3O)[C@H]3COC(=O)[C@H]23)OCO4)cc(OC)c1O [Etoposide]; settings: max 10 µM
Outline: as §1

[23] = compound: CC(=O)O[C@H]1C(=O)[C@@]2(C)[C@H]([C@H](OC(=O)c3ccccc3)[C@]3(O)C[C@H](OC(=O)[C@H](O)[C@@H](NC(=O)c4ccccc4)c4ccccc4)C(C)=C1C3(C)C)[C@]1(OC(C)=O)CO[C@@H]1C[C@@H]2O [Paclitaxel]; settings: max 3 µM
Outline: as §1

[24] = compound: COc1nnc2ccc(N3CCC(c4ccc(OCCN5CCN(C)C(=O)[C@H]5C)cc4)CC3)nn12 [AZD5153]; settings: max 1 µM
Outline: as §1

[25] = compound: O=C(c1cc(Cc2n[nH]c(=O)c3ccccc23)ccc1F)N1CCN(C(=O)C2CC2)CC1 [Olaparib]; settings: max 10 µM
Outline: as §1

[26] = compound: CS(=O)(=O)CCNCc1ccc(-c2ccc3ncnc(Nc4ccc(OCc5cccc(F)c5)c(Cl)c4)c3c2)o1 [Lapatinib]; settings: max 10 µM
Outline: as §1

[27] = compound: Cn1cnc2c(F)c(Nc3ccc(Br)cc3Cl)c(C(=O)NOCCO)cc21 [Selumetinib]; settings: max 10 µM
Outline: as §1

[28] = compound: C[C@@H]1COCCN1C2=NC(=NC(=C2)C3(CC3)[S@](=N)(=O)C)C4=C5C=CNC5=NC=C4 [AZD6738]; settings: max 10 µM
Outline: as §1

[29] = compound: Cc1nc(-c2cn3c(n2)-c2ccc(-c4cnn(C(C)(C)C(N)=O)c4)cc2OCC3)n(C(C)C)n1 [Taselisib]; settings: max 10 µM
Outline: as §1

[30] = compound: C1CN(CCC1(C(=O)N[C@@H](CCO)C2=CC=C(C=C2)Cl)N)C3=NC=NC4=C3C=CN4 [AZD5363]; settings: max 10 µM
Outline: as §1

[31] = compound: CN(CC[C@H](CSC1=CC=CC=C1)NC2=C(C=C(C=C2)S(=O)(=O)NC(=O)C3=CC=C(C=C3)N4CCC(CC4)[C@H](C5=CC=CC=C5C6=CC=C(C=C6)Cl)O)S(=O)(=O)C(F)(F)F)CCO [AZD4320]; settings: max 1 µM
Outline: as §1

[32] = compound: N#Cc1cnc(Nc2cc(NC[C@H]3CNCCO3)c(C(F)(F)F)cn2)cn1 [SRA737]; settings: max 10 µM
Outline: as §1

[33] = compound: Nc1ccn([C@@H]2O[C@H](CO)[C@@H](O)C2(F)F)c(=O)n1 [Gemcitabine]; settings: max 0.3 µM
Outline: as §1

[34] = compound: COc1cccc2c1C(=O)c1c(O)c3c(c(O)c1C2=O)C[C@@](O)(C(=O)CO)C[C@@H]3O[C@H]1C[C@H](N)[C@H](O)[C@H](C)O1 [Doxorubicin]; settings: max 1 µM
Outline: as §1

[35] = compound: CC1=CN2[C@@H](C1)C=NC3=CC(=C(C=C3C2=O)OC)OCCCCCOC4=C(C=C5C(=C4)N=C[C@@H]6CC(=CN6C5=O)C)OC [SG3199]; settings: max 0.001 µM
Outline: as §1

Cell Line | IC50, cell viability 72 h [1] | IC50, cell viability 72 h [2] | IC50, cell viability 72 h [3] | IC50, cell viability 72 h [4] | IC50, cell viability 72 h [5] | IC50, cell viability 72 h [6] | IC50, cell viability 72 h [7] | IC50, cell viability 72 h [8] | IC50, cell viability 72 h [9] | IC50, cell viability 72 h [10] | IC50, cell viability 72 h [11] | IC50, cell viability 72 h [12] | IC50, cell viability 72 h [13] | IC50, cell viability 72 h [14] | IC50, cell viability 72 h [15] | IC50, cell viability 72 h [16] | IC50, cell viability 72 h [17] | IC50, cell viability 72 h [18] | IC50, cell viability 72 h [19] | IC50, cell viability 72 h [20] | IC50, cell viability 72 h [21] | IC50, cell viability 72 h [22] | IC50, cell viability 72 h [23] | IC50, cell viability 72 h [24] | IC50, cell viability 72 h [25] | IC50, cell viability 72 h [26] | IC50, cell viability 72 h [27] | IC50, cell viability 72 h [28] | IC50, cell viability 72 h [29] | IC50, cell viability 72 h [30] | IC50, cell viability 72 h [31] | IC50, cell viability 72 h [32] | IC50, cell viability 72 h [33] | IC50, cell viability 72 h [34] | IC50, cell viability 72 h [35]
NB69 (Neuroblastoma) | 491 nM | > 300 nM | > 10000 nM | 7650 nM | > 10000 nM | 238 nM | > 1000 nM | 141 nM | 444 nM | 2540 nM | 8720 nM | 3.07 nM | > 3000 nM | 2.16 nM | > 10000 nM | 470 nM | > 1000 nM | 201 nM | 27.2 nM | > 10000 nM | 89.9 nM | 166 nM | 15 nM | 37.7 nM | > 10000 nM | 9900 nM | 232 nM | 3130 nM | 487 nM | > 10000 nM | 226 nM | > 10000 nM | 16 nM | 77.2 nM | > 1 nM
NCI-H358 (Lung Adenocarcinoma) | > 10000 nM | > 300 nM | > 10000 nM | > 10000 nM | > 10000 nM | > 10000 nM | > 1000 nM | > 2000 nM | > 3000 nM | > 10000 nM | > 20000 nM | 147 nM | > 3000 nM | > 300 nM | > 10000 nM | > 1000 nM | > 1000 nM | > 1000 nM | > 5000 nM | > 10000 nM | 46.6 nM | > 10000 nM | 28.1 nM | > 1000 nM | > 10000 nM | > 10000 nM | > 10000 nM | > 10000 nM | 3470 nM | > 10000 nM | > 1000 nM | > 10000 nM | > 300 nM | > 1000 nM | > 1 nM
NCI-H727 (Other Solid Carcinomas) | > 10000 nM | > 300 nM | > 10000 nM | > 10000 nM | > 10000 nM | > 10000 nM | > 1000 nM | > 2000 nM | 2600 nM | > 10000 nM | > 20000 nM | 39.2 nM | > 3000 nM | > 300 nM | > 10000 nM | > 1000 nM | > 1000 nM | > 1000 nM | 833 nM | > 10000 nM | 75.9 nM | > 10000 nM | > 3000 nM | > 1000 nM | > 10000 nM | > 10000 nM | 1120 nM | > 10000 nM | 2500 nM | > 10000 nM | > 1000 nM | > 10000 nM | > 300 nM | > 1000 nM | > 1 nM
PANC-04-03 (Pancreatic Carcinoma) | > 10000 nM | > 300 nM | > 10000 nM | > 10000 nM | > 10000 nM | > 10000 nM | > 1000 nM | > 2000 nM | > 3000 nM | > 10000 nM | > 20000 nM | 286 nM | > 3000 nM | > 300 nM | > 10000 nM | > 1000 nM | > 1000 nM | > 1000 nM | 4530 nM | > 10000 nM | 530 nM | > 10000 nM | 2340 nM | > 1000 nM | > 10000 nM | > 10000 nM | > 10000 nM | > 10000 nM | 7660 nM | > 10000 nM | > 1000 nM | > 10000 nM | > 300 nM | > 1000 nM | > 1 nM
RF-48 (B-Cell Non-Hodgkin's Lymphoma) | > 10000 nM | > 300 nM | > 10000 nM | > 10000 nM | > 10000 nM | > 10000 nM | > 1000 nM | > 2000 nM | 1450 nM | > 10000 nM | > 20000 nM | > 1000 nM | > 3000 nM | 21.2 nM | > 10000 nM | > 1000 nM | > 1000 nM | > 1000 nM | > 5000 nM | > 10000 nM | 132 nM | > 10000 nM | 19.9 nM | > 1000 nM | > 10000 nM | > 10000 nM | > 10000 nM | > 10000 nM | > 10000 nM | > 10000 nM | 24.7 nM | > 10000 nM | 82.7 nM | 424 nM | > 1 nM
